We go through 71 molecules from publication PMC5653977 (EMBO Molecular Medicine, 2017).

Structures can show the parent of a compound that is named as a salt.

For one experiment, the system named is NRG1-ERBB4 signaling. As to the kind of experiment: Nrg1-ERBB4-PIK3R1 split TEV co-culture compound screen of the NIH Clinical Collection. The format is cell-based, human.
Conditions: not given
Consider `CNCC[C@H](Oc1cccc2ccccc12)c1cccs1` [DULOXETINE HCl], for which the Z-SCORE is -0.22.

Still in this experiment, the particulars now being: NIH Clinical Collection NCC-003 raw data; compounds ranked by Z-score; 'flagged' given instead of a Z-score.
Consider `COc1cc([C@@H]2c3cc4c(cc3[C@@H](O[C@@H]3O[C@@H]5CO[C@@H](C)O[C@H]5[C@H](O)[C@H]3O)[C@H]3COC(=O)[C@H]23)OCO4)cc(OC)c1O` [Etoposide], for which the Z-SCORE is listed as -2.67.

With `CC(C)C[C@H](NC(=O)[C@@H](O)[C@H](N)Cc1ccccc1)C(=O)O` [BESTATIN], the Z-SCORE is reported as -1.11.

With `CSc1nc2cc(Cl)c(Oc3cccc(Cl)c3Cl)cc2[nH]1` [TRICLABENDAZOLE], the Z-SCORE is -1.39.

The same experiment, now with this note: compound screen of the NIH Clinical Collection, sheet raw data NCC-003; compounds ranked by Z-score.
On to `CN1CCN(CCCN2c3ccccc3Sc3ccc(Cl)cc32)CC1`, for which the Z-SCORE was -0.47.

With `C=C1/C(=C\C=C2/CCC[C@]3(C)[C@@H]([C@H](C)/C=C/[C@@H](O)C4CC4)CC[C@@H]23)C[C@@H](O)C[C@@H]1O` [CALCIPOTRIOL], the Z-SCORE is given as -0.04.

With `C[C@H](N[C@@H](CCc1ccccc1)C(=O)O)C(=O)N1CCC[C@H]1C(=O)O`, the Z-SCORE is reported as -0.43.

On to `CN(C)CCC(c1ccc(Cl)cc1)c1ccccn1` (centres unmarked) [Chlorpheniramine], for which the Z-SCORE was -0.07.

`CN(CCOc1ccc(CC2SC(=O)NC2=O)cc1)c1ccccn1.Cl` (centres unmarked) [ROSIGLITAZONE HCl]: the Z-SCORE amounted to 0.11.

Consider Benzeneacetic acid, for which the Z-SCORE is on record as -0.01.

In turn, `CCOC(=O)c1ncn2c1CN(C)C(=O)c1cc(F)ccc1-2` [FLUMAZENIL] returned a Z-SCORE of 0.09.

On to `COc1ccc2[nH]cc(C3=CCNCC3)c2c1` [RU 24969], for which the Z-SCORE is given as 0.79.

Molecule `N=C(N)NC(=O)c1nc(Cl)c(N)nc1N` registered a Z-SCORE of 0.85.

With `CN1C(=O)CC[C@H]1c1cccnc1` [(-)-Cotinine], the Z-SCORE is recorded as -0.57.

Take `CN(CCOc1ccc(CC2SC(=O)NC2=O)cc1)c1ccccn1` (centres unmarked) [ROSIGLITAZONE MALEATE]: the Z-SCORE was -0.83.

Consider `O=C1[C@H](CC[C@H](O)c2ccc(F)cc2)[C@@H](c2ccc(O)cc2)N1c1ccc(F)cc1` [EZETIMIBE], for which the Z-SCORE is listed as 0.64.

Turning to `CC(c1cc2ccccc2s1)N(O)C(N)=O` (centres unmarked) [ZILEUTON], the Z-SCORE was 1.28.

In turn, `COc1ccc2cc([C@H](C)C(=O)O)ccc2c1` [NAPROXEN SODIUM] showed a Z-SCORE of 0.35.

In turn, `CO[C@H]1/C=C/O[C@@]2(C)Oc3c(C)c(O)c4c(O)c(c5c(nc6cc(C)ccn65)c4c3C2=O)NC(=O)/C(C)=C\C=C\[C@H](C)[C@H](O)[C@@H](C)[C@@H](O)[C@@H](C)[C@H](OC(C)=O)[C@@H]1C` [RIFAXIMIN] gave a Z-SCORE of 0.05.

Turning to `CN1CCc2cc(Cl)c(O)cc2[C@@H](c2ccccc2)C1.Cl` [R(+)-SCH-23390 hydrochloride], the Z-SCORE is given as 0.87.

Regarding `CCOC(=O)O[C@]1(C(=O)OCCl)CC[C@H]2[C@@H]3CCC4=CC(=O)C=C[C@]4(C)[C@H]3[C@@H](O)C[C@@]21C` [LOTEPREDNOL ETABONATE], the Z-SCORE was 0.32.

`Cc1ncc([N+](=O)[O-])n1CC(O)CCl` (centres unmarked) [ORNIDAZOLE]: the Z-SCORE stood at 2.22.

Regarding `COC(=O)C1=C(C)NC(C)=C(C(=O)OC)C1c1ccccc1[N+](=O)[O-]` [NIFEDIPINE], the Z-SCORE was determined as 2.68.

Take `COc1cccc(C2(O)CCCCC2CN(C)C)c1` (centres unmarked) [Tramadol]: the Z-SCORE is reported as -0.17.

Molecule `CC(C)NCC(O)COc1ccc(CCOCC2CC2)cc1` (centres unmarked) [Betaxolol hydrochloride] returned a Z-SCORE of 1.56.

With `CCCCC/C=C\C/C=C\C/C=C\C/C=C\CCCC(=O)Nc1ccc(O)cc1` [AM 404], the Z-SCORE is -1.01.

For `C[C@@H](c1ncncc1F)[C@](O)(Cn1cncn1)c1ccc(F)cc1F` [VORICONAZOLE], the Z-SCORE is listed as -0.06.

The molecule `CCC(C)(C)NC(=Nc1cccnc1)NC#N` had a Z-SCORE of 0.49.

Regarding `O=C1c2cccc3c2[C@H](CCC3)CN1[C@@H]1CN2CCC1CC2` [PALONOSETRON HCl], the Z-SCORE amounted to 0.77.

Take `Nc1nc2c(ncn2CCC(CO)CO)c(=O)[nH]1` [PENCICLOVIR]: the Z-SCORE is -0.01.

`CO[C@H]1O[C@@H]2O[C@@]3(C)CC[C@H]4[C@H](C)CC[C@@H]([C@H]1C)[C@@]24OO3`: the Z-SCORE is given as -1.01.

On to `O=C(c1ccccc1)c1ccc2n1CCC2C(=O)O` (centres unmarked) [Ketorolac tromethamine], for which the Z-SCORE is on record as -0.4.

Take `CCC(=O)[N-]S(=O)(=O)c1ccc(-c2c(-c3ccccc3)noc2C)cc1.[Na+]` [PARECOXIB Na]: the Z-SCORE is -0.3.

Molecule `CCOC(=O)C1(CCCCCCOc2ccc(Cl)cc2)CO1` (centres unmarked) yielded a Z-SCORE of 0.96.

On to `OC[C@H]1O[C@@H](n2cnc3c(N[C@H]4CCC[C@@H]4O)ncnc32)[C@H](O)[C@@H]1O`, for which the Z-SCORE is recorded as -0.71.

As to `CCCN1CCCC[C@H]1C(=O)Nc1c(C)cccc1C` [ROPIVACAINE HCl], the Z-SCORE is reported as -0.05.

For `NC(=O)C[S+]([O-])C(c1ccccc1)c1ccccc1` (centres unmarked) [Modafinil], the Z-SCORE is 0.43.

`NC(=O)N1c2ccccc2CC(=O)c2ccccc21` [Trileptal] returned a Z-SCORE of 0.62.

On to `Cc1sc(N)c(C(=O)c2cccc(C(F)(F)F)c2)c1C` [PD 81723], for which the Z-SCORE was 0.13.

As for `CC[C@]1(O)CC[C@H]2[C@@H]3CCC4=CCCC[C@@H]4[C@H]3CC[C@@]21C` [Ethylestrenol], the Z-SCORE was -0.98.

In the case of `COc1ccc(-c2cc(=O)c3c(OC)c(OC)c(OC)c(OC)c3o2)cc1OC` [Nobiletin], the Z-SCORE was -0.05.

In the case of `CN1CCN(c2c(F)cc3c(=O)c(C(=O)O)cn4c3c2SCC4)CC1.Cl` [RUFLOXACIN HCl], the Z-SCORE came to 1.1.

As to `Cl.Nc1c2c(nc3c1CCC3)CCCC2`, the Z-SCORE was -0.08.

`Cc1nc2n(c(=O)c1CCN1CCC(c3noc4cc(F)ccc34)CC1)CCCC2` [RISPERIDONE]: the Z-SCORE is given as 0.

For `CCCCN1CCCC1CNC(=O)c1cc(C#N)c2ccccc2c1OC` (centres unmarked) [Nafadotride], the Z-SCORE is listed as -0.24.

The same experiment, now with this note: compounds at 10 μM, 24 h; PC12 split TEV assay cells co-cultured with Nrg1-expressing PC12 cells; analysed with cellHTS2.
Regarding `CC(=O)[C@H]1CC[C@H]2[C@@H]3C[C@H](C)C4=CC(=O)CC[C@]4(C)[C@H]3[C@@H](O)C[C@]12C` [Medrysone, reference compound], the Z-SCORE is -1.74.

As for `CC(C[N+](C)(C)C)OC(N)=O` (centres unmarked) [Urecholine, reference compound], the Z-SCORE is on record as -0.94.

On to `C[C@H]1C[C@@H]2[C@H]([C@@H](O)C[C@@]3(C)[C@H]2CC[C@]3(O)C(=O)CO)[C@@]2(C)C=CC(=O)C=C12` [METHYLPREDNISOLONE, reference compound], for which the Z-SCORE is 0.65.

Consider `CC(C)n1c(/C=C/C(O)CC(O)CC(=O)O)c(-c2ccc(F)cc2)c2ccccc21` (centres unmarked) [fluvastatin, reference compound], for which the Z-SCORE entry is “flagged”.

For the molecule `Cc1ccc(-c2cc(C(F)(F)F)nn2-c2ccc(S(N)(=O)=O)cc2)cc1` [Celecoxib, reference compound], the Z-SCORE is recorded as -0.36.

Take `Nc1ccc(S(=O)(=O)c2ccc(N)cc2)cc1` [Dapsone, reference compound]: the Z-SCORE is given as -0.6.

Take `COc1cc(C)c(/C=C/C(C)=C/C=C/C(C)=C/C(=O)O)c(C)c1C` [Acitretin, reference compound]: the Z-SCORE is -0.6.

Take `Nc1nc2c(ncn2COCCO)c(=O)[nH]1` [Acyclovir, reference compound]: the Z-SCORE worked out at 0.99.

In the case of `C[C@@](Cc1ccc(O)c(O)c1)(NN)C(=O)O` [CARBIDOPA, reference compound], the Z-SCORE is listed as -1.58.

Turning to `Clc1ccc(COC(Cn2ccnc2)c2ccc(Cl)cc2Cl)c(Cl)c1` (centres unmarked) [MICONAZOLE NITRATE, reference compound], the Z-SCORE is reported as -0.69.

On to `CC1=C(C/C=C(\C)CCC[C@H](C)CCC[C@H](C)CCCC(C)C)C(=O)c2ccccc2C1=O` [Phylloquinone, reference compound], for which the Z-SCORE is listed as -0.1.

Molecule `CC(C)(S)C(N)C(=O)O` (racemic) [DL-PENICILLAMINE, reference compound] registered a Z-SCORE of 2.02.

In turn, `CC(CN1c2ccccc2Sc2ccccc21)N(C)C` (centres unmarked) [Phenergan, reference compound] displayed a Z-SCORE of 0.41.

On to `Cn1c(=O)c2[nH]cnc2n(C)c1=O` [Theophylline, reference compound], for which the Z-SCORE was 2.57.

Molecule `CN(C)CCCN1c2ccccc2CCc2ccc(Cl)cc21` [Anafranil, reference compound] yielded a Z-SCORE of 0.12.

Turning to `Oc1c(Cl)cc(Cl)c2cccnc12` [Chloroxine, reference compound], the Z-SCORE entry is “flagged”.

`CCOC(=O)[C@H](CCc1ccccc1)N[C@@H](C)C(=O)N1CCC[C@H]1C(=O)O` [ENALAPRIL MALEATE, reference compound] returned a Z-SCORE of 0.

For `CCCCNc1cc(C(=O)O)cc(S(N)(=O)=O)c1Oc1ccccc1` [BUMETANIDE, reference compound], the Z-SCORE is listed as -0.03.

`CNCCC(Oc1ccc(C(F)(F)F)cc1)c1ccccc1` (centres unmarked) [Prozac, reference compound]: the Z-SCORE is recorded as -1.46.

With `O=C(O)c1cc2ccccc2c(Cc2c(O)c(C(=O)O)cc3ccccc23)c1O.OCCOCCN1CCN(C(c2ccccc2)c2ccc(Cl)cc2)CC1` [Vistaril Pamoate, reference compound], the Z-SCORE is -1.45.

Take `CC[C@@H](CO)NCCN[C@@H](CC)CO` [Ethambutol, reference compound]: the Z-SCORE was -0.12.

`CC1COc2c(N3CCN(C)CC3)c(F)cc3c(=O)c(C(=O)O)cn1c23` (centres unmarked) [OFLOXACIN, reference compound] yielded a Z-SCORE of 0.8.

In the case of `NCC(=O)CCC(=O)O` [Aminolevulinic Acid, reference compound], the Z-SCORE was -0.04.

Regarding `CCN(CC)CCOC(=O)c1ccc(N)cc1` [Novocain, reference compound], the Z-SCORE is -0.44.

Take `CCCCC(=O)O[C@H]1CC[C@H]2[C@@H]3CCc4cc(O)ccc4[C@H]3CC[C@]12C` [17-BETA-ESTRADIOL 17-VALERATE, reference compound]: the Z-SCORE is listed as -0.44.

In turn, `CCc1cc(C(N)=S)ccn1` [Ethionamide, reference compound] showed a Z-SCORE of 0.42.
